Assay [1] deals with p75^NTR receptors (PC12 cells). The assay can be described thus: Basic screening assay: binding of 125I-NGF to PC12 cells. The settings on record: Table 1; test compound 50 μM; 0.5 nM 125I-NGF; PC12 cells; 2 h at 4° C.; specific binding as percent of control. On the procedure:
(§1) The compounds were screened for effects on binding of ^125I-BDNF or ^125I-NGF to PC12 cells (p75^NTR receptors), and those that inhibited binding were further tested to determine the EC50 for this inhibition.
(§2) PC12 cells were cultured and prepared for binding assays as described in Example 1.
Lyophilized Serotec mouse 2.5S NGF (Cedarlane Laboratories, Toronto, Canada, cat. # PMP 04Z) was reconstituted under sterile conditions to 1 mg/mL (38 μM) in sterile 0.2% acetic acid, and 100 μL or 50 μL aliquots were stored frozen at −80° C.
(§3) Lypophilized Peprotech human recombinant BDNF (Cedarlane Laboratories, Toronto, Canada, cat. # PE 450-02-10) was reconstituted under sterile conditions to 3.5 μM in sterile HKR/1%BSA, and either used immediately or stored in aliquots of 20 μl at −80° C. Immediately prior to use, a 15 nM (30×) solution of ^125I-BDNF or ^125I-NGF was prepared in HKR buffer, and was used at 0.5 nM final concentration.
(§4) Test Compounds were dissolved to 10 mM in DMSO, and those that were not initially soluble were warmed to 40-50° C. and vortexed. Those compounds that were still not in solution were reported as such. Compounds were then stored in this form at −20° C. until use. Immediately before experiments, 100 mM compounds were diluted to 10 mM in DMSO (1:10), followed by a further dilution to 1 mM (1:10) with distilled water, and a further dilution to 500 μM (1:1) with HKR.
(§5) Assays to determine maximum binding (Bmax), non-specific binding (NSB), and binding in the presence of each test compound (e.g., x, y) were performed at least in duplicate. In a total volume of 300 μL, 4×10^6 PC12 cells were incubated, rotating for 2 h at 4° C. with the following:
(§6) At the conclusion of the binding reaction, 100 μL aliquots of the reaction mixtures were carefully layered over 200 μL of a 10% glycerol solution in a 0.4 mL tube, and subjected to centrifugation in a microcentrifuge for 2 minutes at half maximum speed. The cell pellets containing the bound ^125I-BDNF or ^125I-NGF were then measured using a gamma counter. The mean values of the replicates were then calculated to determine the value for maximum binding (Bmax) and nonspecific binding (NSB), and binding in the presence of test compound at 50 μM (Bx). Specific binding (SB) was measured by subtracting the NSB from the Bmax. Specific binding in the presence of the test compound (SBx) was determined by subtracting the NSB from the Bx for each test compound; and each SBx was divided by SB and multiplied by 100 to give the specific binding in the presence of the compound as a percent of control specific binding.

The target in assay [2] is T1, p75^NTR receptors (PC12 cells) (Rattus norvegicus, UniProt P07174).
T1 construct: endogenous in cells; host or cells: PC12 cells
T1 sequence (P07174 30-425): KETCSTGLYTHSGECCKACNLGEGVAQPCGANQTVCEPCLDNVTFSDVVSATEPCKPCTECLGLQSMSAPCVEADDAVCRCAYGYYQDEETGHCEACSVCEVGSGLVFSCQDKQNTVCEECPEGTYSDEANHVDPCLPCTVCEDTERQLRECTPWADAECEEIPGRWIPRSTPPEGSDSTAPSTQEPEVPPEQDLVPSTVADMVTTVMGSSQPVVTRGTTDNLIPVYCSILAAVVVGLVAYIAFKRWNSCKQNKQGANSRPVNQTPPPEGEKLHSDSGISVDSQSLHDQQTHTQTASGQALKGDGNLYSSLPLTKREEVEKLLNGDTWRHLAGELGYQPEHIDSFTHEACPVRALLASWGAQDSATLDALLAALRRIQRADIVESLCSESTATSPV
T1 sequence (P23560 129-247 partner): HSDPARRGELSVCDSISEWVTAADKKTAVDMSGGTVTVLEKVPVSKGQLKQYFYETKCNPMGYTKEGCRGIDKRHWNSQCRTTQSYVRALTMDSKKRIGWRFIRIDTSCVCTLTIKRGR
The assay can be described thus: Basic screening assay: binding of 125I-BDNF to PC12 cells. Particulars: read-out: BDNF Activity % Maximal Binding. The protocol:
as §1, §2, §3, §4, §5
as §6, with “Bmax.” for “Bmax. Specific binding in the presence of the test compound (SBx) was determined by subtracting the NSB from the Bx for each test compound; and each SBx was divided by SB and multiplied by 100 to give the specific binding in the presence of the compound as a percent of control specific binding.”

The mark [3] stands for this setting: Table 1, test compound 50 μM, 0.5 nM 125I-BDNF, PC12 cells, 2 h at 4° C., specific binding as percent of control.

Read-outs that look alike come from different tables or passages of the source.

For `O=C1NC(=S)NC(=O)C1=Cc1ccc(-c2ccc([N+](=O)[O-])cc2Br)o1` [Compound 1, 5-[5-(2-Bromo-4-nitrophenyl)furan-2-ylmethylene]-2-thioxo-dihydro-pyrimidine-4,6-dione], in assay [1], the “NGF Activity % Maximal Binding” value was “* (50 < *)”. Also, the activity at 50 µM in assay [2] was in the range of 0 to 10%. Consider `Cc1ccc([N+](=O)[O-])cc1-c1ccc(/C=C2/SC(=S)NC2=O)o1` [Compound 2, 5-[5-(2-Methyl-5-nitrophenyl)furan-2-ylmethylene]-2-thioxo-thiazolidin-4-one], for which the “NGF Activity % Maximal Binding” value in assay [1] is “* (50 < *)”. In assay [2] (setting [3]), the activity at 50 µM is 0 to 10%.

As for `O=C1NC(=S)NC(=O)C1=Cc1ccc(-c2ccc([N+](=O)[O-])cc2Cl)o1` [Compound 4, 5-[5-(2-Chloro-4-nitrophenyl)furan-2-ylmethylene]-2-thioxo-dihydro-pyrimidine-4,6-dione], the “NGF Activity % Maximal Binding” value in assay [1] is reported as “* (50 < *)”. In assay [2], the activity at 50 µM was 0 to 10%. Consider `O=C1NC(=S)S/C1=C/c1ccc(-c2ccc([N+](=O)[O-])cc2Cl)o1` [Compound 5, 5-[5-(2-Chloro-4-nitrophenyl)furan-2-ylmethylene]-2-thioxo-thiazolidin-4-one], for which the “NGF Activity % Maximal Binding” value in assay [1] is listed as “* (50 < *)”. The activity at 50 µM in assay [2] (setting [3]) was 0 to 10%.

`O=C1NC(=S)NC(=O)C1=Cc1ccc(-c2ccc(C(=O)O)cc2)o1` [Compound 6, 4-[5-(4,6-Dioxo-2-thioxo-tetrahydro-pyrimidin-5-ylidenemethyl)furan-2-yl]benzoic acid]: the “NGF Activity % Maximal Binding” value in assay [1] is “* (50 < *)”. Also, the activity at 50 µM in assay [2] was in the range of 0 to 10%.

Take `Cc1cc([N+](=O)[O-])ccc1-c1ccc(C=C2SC(=S)NC2=O)o1` [Compound 7, 5-[5-(2-Methyl-4-nitrophenyl)furan-2-ylmethylene]-2-thioxo-thiazolidin-4-one]: in assay [1], the “NGF Activity % Maximal Binding” value is listed as “* (50 < *)”. In addition, the activity at 50 µM in assay [2] (setting [3]) lay in the range of 0 to 10%. As to `COc1ccc(-c2ccc(C=C3C(=O)NC(=S)NC3=O)o2)cc1[N+](=O)[O-]` [Compound 8, 5-[5-(4-Methoxy-3-nitrophenyl)furan-2-ylmethylene]-2-thioxo-dihydro-pyrimidine-4,6-dione], the “NGF Activity % Maximal Binding” value in assay [1] is reported as “* (50 < *)”. Moreover, the activity at 50 µM in assay [2] lay in the range of 0 to 10%. Consider `Cc1cccc(N2NC(=O)C(=Cc3ccc(-c4ccc(S(N)(=O)=O)cc4)o3)C2=O)c1` [Compound 9, 4-[5-(3,5-Dioxo-1-m-tolyl-pyrazolidin-4-ylidenemethyl)furan-2-yl]benzenesulfonamide], for which the “NGF Activity % Maximal Binding” value in assay [1] is listed as “* (50 < *)”. The activity at 50 µM in assay [2] (setting [3]) fell in the range of 0 to 10%. Regarding `O=C(O)CCN1C(=O)C(=Cc2ccc(-c3ccc([N+](=O)[O-])cc3)o2)SC1=S` [Compound 10, 3-{5-[5-(4-Nitrophenyl)furan-2-ylmethylene]-4-oxo-2-thioxo-thiazolidin-3-yl}-propionic acid], the “NGF Activity % Maximal Binding” value in assay [1] is listed as “* (50 < *)”. In addition, the activity at 50 µM in assay [2] (setting [3]) fell in the range of 0 to 10%. In the case of `O=C1NC(=O)C(=Cc2ccc(-c3ccc([N+](=O)[O-])cc3Cl)o2)C(=O)N1` [Compound 11, 5-[5-(2-Chloro-4-nitrophenyl)furan-2-ylmethylene]-pyrimidine-2,4,6-trione], in assay [1], the “NGF Activity % Maximal Binding” value is reported as “* (50 < *)”. The activity at 50 µM in assay [2] is 0 to 10%. Turning to `CCCCOC(=O)c1ccc(-c2ccc(/C=C3/SC(=S)N(CC(=O)O)C3=O)o2)cc1` [Compound 12, 4-[5-(3-Carboxymethyl-4-oxo-2-thioxo-thiazolidin-5-ylidenemethyl)furan-2-yl]benzoic acid butyl ester], the “NGF Activity % Maximal Binding” value in assay [1] was “* (50 < *)”. Moreover, the activity at 50 µM in assay [2] (setting [3]) was 0 to 10%. For `O=C(O)c1ccc(Cl)c(-c2ccc(/C=C3/NC(=O)N(Cc4ccc(F)cc4)C3=O)o2)c1` [Compound 13, 4-Chloro-3-{5-[1-(4-fluorobenzyl)-2,5-dioxo-imidazolidin-4-ylidenemethyl]furan-2-yl}benzoic acid], the “NGF Activity % Maximal Binding” value in assay [1] is recorded as “* (50 < *)”. Further, the activity at 50 µM in assay [2] (setting [3]) lay within 0 to 10%. The corresponding values for `Cc1ccc(-c2ccc(/C=C3/SC(=S)N(CC(=O)O)C3=O)o2)cc1[N+](=O)[O-]` [Compound 14, {5-[5-(4-Methyl-3-nitrophenyl)furan-2-ylmethylene]-4-oxo-2-thioxo-thiazolidin-3-yl}-acetic acid] are “* (50 < *)” and 0 to 10%. Take `Cc1cc(-c2ccc(C=C3SC(=S)N(CC(=O)O)C3=O)o2)ccc1[N+](=O)[O-]` [Compound 15, {5-[5-(3-Methyl-4-nitrophenyl)furan-2-ylmethylene]-4-oxo-2-thioxo-thiazolidin-3-yl}-acetic acid]: in assay [2] (setting [3]), the activity at 50 µM lay within 0 to 10%. For `Cc1ccc(C(=O)O)cc1-c1ccc(/C=C2/NC(=O)N(c3ccccc3)C2=O)o1` [Compound 16, 3-[5-(2,5-Dioxo-1-phenyl-imidazolidin-4-ylidenemethyl)furan-2-yl]-4-methylbenzoic acid], the “NGF Activity % Maximal Binding” value in assay [1] is on record as “* (50 < *)”. Also, the activity at 50 µM in assay [2] (setting [3]) is 0 to 10%.

Regarding `CN1C(=O)NC(=O)C(=Cc2ccc(-c3ccc(C(=O)O)cc3)o2)C1=O` [Compound 17, 4-[5-(1-Methyl-2,4,6-trioxo-tetrahydro-pyrimidin-5-ylidenemethyl)furan-2-yl]benzoic acid], the “NGF Activity % Maximal Binding” value in assay [1] is given as “* (50 < *)”. Also, the activity at 50 µM in assay [2] was 0 to 10%.

Consider `Cc1cc([N+](=O)[O-])c(C)cc1-c1ccc(C=C2C(=O)NC(=O)NC2=O)o1` [Compound 18, 5-[5-(2,5-Dimethyl-4-nitrophenyl)furan-2-ylmethylene]-pyrimidine-2,4,6-trione], for which the “NGF Activity % Maximal Binding” value in assay [1] is given as “* (50 < *)”. Also, the activity at 50 µM in assay [2] lay in the range of 0 to 10%. As for `COC(=O)c1ccc(-c2ccc(C=C3C(=O)NC(=S)NC3=O)o2)cc1` [Compound 19, 4-[5-(4,6-Dioxo-2-thioxo-tetrahydro-pyrimidin-5-ylidenemethyl)furan-2-yl]benzoic acid methyl ester], in assay [1], the “NGF Activity % Maximal Binding” value is given as “* (50 < *)”. Besides, the activity at 50 µM in assay [2] is 0 to 10%. Consider `COc1ccc(-c2ccc(/C=C3\SC(=S)NC3=O)o2)cc1[N+](=O)[O-]` [Compound 20, 5-[5-(4-Methoxy-3-nitrophenyl)furan-2-ylmethylene]-2-thioxo-thiazolidin-4-one], for which, in assay [1], the “NGF Activity % Maximal Binding” value is “* (50 < *)”. For the same compound, the activity at 50 µM in assay [2] (setting [3]) lay within 0 to 10%. The corresponding values for `CCOC(=O)CN1C(=O)S/C(=C/c2ccc(-c3cc(C(=O)O)ccc3C)o2)C1=O` [Compound 21, 3-[5-(3-Ethoxycarbonylmethyl-2,4-dioxo-thiazolidin-5-ylidenemethyl)furan-2-yl]-4-methylbenzoic acid] are “* (50 < *)” and 0 to 10%. As to `Cc1ccc(C(=O)O)cc1-c1ccc(/C=C2/NC(=O)NC2=O)o1` [Compound 22, 3-[5-(2,5-Dioxo-imidazolidin-4-ylidenemethyl)furan-2-yl]-4-methylbenzoic acid], the “NGF Activity % Maximal Binding” value in assay [1] is reported as “* (50 < *)”. Besides, the activity at 50 µM in assay [2] (setting [3]) lay in the range of 0 to 10%.
